Experimental data from patent US20210045385A1, “PYRIDAZINONE-SUBSTITUTED KETOXIMES AS HERBICIDES” (FMC Corporation, priority 2018, published 2021).

Assays:
[1] = tested on: barnyardgrass (Echinochloa crus-galli); experiment: Test B flooded paddy test, visual plant response rating; format: in vivo; settings: 250 g ai/ha, Flood, applied to paddy water, 2-leaf stage, evaluated after 13 to 15 days
Method in brief: (§1)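 Greenhouse paddy conditions applied: two-leaf plants, a 3 cm flood above the soil surface maintained throughout, and compound added to the water rather than the foliage. Plants were judged visually against controls at 13 to 15 days.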

[2] = tested on: ducksalad (Heteranhera limosa); experiment: as above; format: in vivo; settings: 250 g ai/ha, Flood, applied to paddy water, 2-leaf stage, evaluated after 13 to 15 days
Method in brief: as §1

[3] = tested on: sedge, umbrella (small-flower umbrella sedge, Cyperus difformis); experiment: as above; format: in vivo; settings: 250 g ai/ha, Flood, applied to paddy water, 2-leaf stage, evaluated after 13 to 15 days
Method in brief: as §1

rice (Oryza sativa) = experiment: as above; format: in vivo; settings: 250 g ai/ha, Flood, applied to paddy water, 2-leaf stage, evaluated after 13 to 15 days
Method in brief: as §1

[4] = tested on: galium (catchweed bedstraw, Galium aparine); experiment: Test A postemergence, visual plant response rating; format: in vivo; settings: for Galium plant response rating (0 to 100 scale): 500 g ai/ha, postemergence, 0 is no effect, 100 is complete control; for Galium plant response rating: Postemergence, 125 g ai/ha, 0 to 100 scale (0 no effect, 100 complete control)
Method in brief: (§2)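 Formulated in a non-phytotoxic solvent mixture including surfactant, each test chemical was sprayed onto the soil surface after sowing, or onto seedlings 2 to 10 cm high. Roughly 10 days later, plants were compared with untreated controls and rated for injury from 0 (no effect) to 100 (complete control).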

[5] = tested on: pigweed (Amaranthus retroflexus); experiment: Test A postemergence, visual plant response rating; format: in vivo; settings: for Pigweed plant response rating (0 to 100 scale): 500 g ai/ha, postemergence, 0 is no effect, 100 is complete control; for Pigweed plant response rating: Postemergence, 125 g ai/ha, 0 to 100 scale (0 no effect, 100 complete control)
Method in brief: as §2

[6] = tested on: foxtail, giant (giant foxtail, Setaria faberii); experiment: Test A postemergence, visual plant response rating; format: in vivo; settings: for Foxtail, Giant plant response rating (0 to 100 scale): 500 g ai/ha, postemergence, 0 is no effect, 100 is complete control; for Foxtail, Giant plant response rating: Postemergence, 125 g ai/ha, 0 to 100 scale (0 no effect, 100 complete control)
Method in brief: as §2

[7] = tested on: barnyardgrass (Echinochloa crus-galli); experiment: Test A postemergence, visual plant response rating; format: in vivo; settings: for Barnyardgrass plant response rating (0 to 100 scale): 500 g ai/ha, postemergence, 0 is no effect, 100 is complete control; for Barnyardgrass plant response rating: Postemergence, 125 g ai/ha, 0 to 100 scale (0 no effect, 100 complete control)
Method in brief: as §2

[8] = tested on: ragweed (common ragweed, Ambrosia elatior); experiment: Test A postemergence, visual plant response rating; format: in vivo; settings: for Ragweed plant response rating (0 to 100 scale): 500 g ai/ha, postemergence, 0 is no effect, 100 is complete control; for Ragweed plant response rating: Postemergence, 125 g ai/ha, 0 to 100 scale (0 no effect, 100 complete control)
Method in brief: as §2

[9] = tested on: Italian ryegrass (Lolium multiflorum); experiment: Test A postemergence, visual plant response rating; format: in vivo; settings: for Ryegrass, Italian plant response rating (0 to 100 scale): 500 g ai/ha, postemergence, 0 is no effect, 100 is complete control; for Ryegrass, Italian plant response rating: Postemergence, 125 g ai/ha, 0 to 100 scale (0 no effect, 100 complete control)
Method in brief: as §2

[10] = tested on: blackgrass (Alopecurus myosuroides); experiment: Test A postemergence, visual plant response rating; format: in vivo; settings: for Blackgrass plant response rating (0 to 100 scale): 500 g ai/ha, postemergence, 0 is no effect, 100 is complete control; for Blackgrass plant response rating: Postemergence, 125 g ai/ha, 0 to 100 scale (0 no effect, 100 complete control)
Method in brief: as §2

[11] = tested on: wheat (Triticum aestivum); experiment: Test A postemergence, visual plant response rating; format: in vivo; settings: for Wheat plant response rating (0 to 100 scale): 500 g ai/ha, postemergence, 0 is no effect, 100 is complete control; for Wheat plant response rating: Postemergence, 125 g ai/ha, 0 to 100 scale (0 no effect, 100 complete control)
Method in brief: as §2

kochia (Kochia scoparia) [12] = experiment: Test A postemergence, visual plant response rating; format: in vivo; settings: for Kochia plant response rating (0 to 100 scale): 500 g ai/ha, postemergence, 0 is no effect, 100 is complete control; for Kochia plant response rating: Postemergence, 125 g ai/ha, 0 to 100 scale (0 no effect, 100 complete control)
Method in brief: as §2

corn (Zea mays) = experiment: Test A postemergence, visual plant response rating; format: in vivo; settings: for Corn plant response rating (0 to 100 scale): 500 g ai/ha, postemergence, 0 is no effect, 100 is complete control; for Corn plant response rating: Postemergence, 125 g ai/ha, 0 to 100 scale (0 no effect, 100 complete control)
Method in brief: as §2

[13] = tested on: pigweed (Amaranthus retroflexus); experiment: Test A preemergence, visual plant response rating; format: in vivo; settings: for Pigweed plant response rating: 125 g ai/ha, preemergence, 0 to 100 scale, 0 no effect, 100 complete control; for Pigweed plant response rating (0 to 100 scale): 500 g ai/ha Preemergence, approx. 10 days
Method in brief: as §2

[14] = tested on: foxtail, giant (giant foxtail, Setaria faberii); experiment: Test A preemergence, visual plant response rating; format: in vivo; settings: for Foxtail, Giant plant response rating: 125 g ai/ha, preemergence, 0 to 100 scale, 0 no effect, 100 complete control; for Foxtail, Giant plant response rating (0 to 100 scale): 500 g ai/ha Preemergence, approx. 10 days
Method in brief: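 Compared with untreated controls, treated plants received a visual injury score on a 0–100 scale around 10 days after application. The compound, in a non-phytotoxic solvent with surfactant, was given as a preemergence soil spray or postemergence at the one- to two-leaf stage.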

[15] = tested on: barnyardgrass (Echinochloa crus-galli); experiment: Test A preemergence, visual plant response rating; format: in vivo; settings: for Barnyardgrass plant response rating: 125 g ai/ha, preemergence, 0 to 100 scale, 0 no effect, 100 complete control; for Barnyardgrass plant response rating (0 to 100 scale): 500 g ai/ha Preemergence, approx. 10 days
Method in brief: as §2

[16] = tested on: Italian ryegrass (Lolium multiflorum); experiment: Test A preemergence, visual plant response rating; format: in vivo; settings: for Ryegrass, Italian plant response rating: 125 g ai/ha, preemergence, 0 to 100 scale, 0 no effect, 100 complete control; for Ryegrass, Italian plant response rating (0 to 100 scale): 500 g ai/ha Preemergence, approx. 10 days
Method in brief: as §2

kochia (Kochia scoparia) [17] = experiment: Test A preemergence, visual plant response rating; format: in vivo; settings: for Kochia plant response rating: 125 g ai/ha, preemergence, 0 to 100 scale, 0 no effect, 100 complete control; for Kochia plant response rating (0 to 100 scale): 500 g ai/ha Preemergence, approx. 10 days
Method in brief: as §2

Structure (SMILES)	Plant response rating, Barnyardgrass (0 to 100 scale, 0 is no effect, 100 is complete control) [1]	Plant response rating, Ducksalad (0 to 100 scale, 0 is no effect, 100 is complete control) [2]	Plant response rating, Sedge, Umbrella (0 to 100 scale, 0 is no effect, 100 is complete control) [3]	Plant response rating, Rice (0 to 100 scale, 0 is no effect, 100 is complete control) (rice (Oryza sativa))	Galium plant response rating (0 to 100 scale) [4]	Galium plant response rating [4]	Pigweed plant response rating (0 to 100 scale) [5]	Pigweed plant response rating [5]	Foxtail, Giant plant response rating (0 to 100 scale) [6]	Foxtail, Giant plant response rating [6]	Barnyardgrass plant response rating (0 to 100 scale) [7]	Barnyardgrass plant response rating [7]	Ragweed plant response rating (0 to 100 scale) [8]	Ragweed plant response rating [8]	Ryegrass, Italian plant response rating (0 to 100 scale) [9]	Ryegrass, Italian plant response rating [9]	Blackgrass plant response rating (0 to 100 scale) [10]	Blackgrass plant response rating [10]	Wheat plant response rating (0 to 100 scale) [11]	Wheat plant response rating [11]	other results
CO/N=C(\c1c(O)c(C)nn(C)c1=O)c1cc(Br)cc2ccccc12 [Compound 91, 4-[(Z)-(3-bromo-1-naphthalenyl)(methoxyimino)methyl]-5-hydroxy-2,6-dimethyl-3(2H)-pyridazinone]	65	60	60	20	100	100	90	80	90	80	80	80	100	100	100	100	100	100	80	50	Kochia plant response rating (0 to 100 scale) (kochia (Kochia scoparia) [12]): 80; Kochia plant response rating (kochia (Kochia scoparia) [12]): 60; Corn plant response rating (0 to 100 scale) (corn (Zea mays)): 70; Corn plant response rating (corn (Zea mays)): 30; melting point: 129 to 133 °C; Pigweed plant response rating [13]: 100; Pigweed plant response rating (0 to 100 scale) [13]: 100; Foxtail, Giant plant response rating [14]: 100; Foxtail, Giant plant response rating (0 to 100 scale) [14]: 100; Barnyardgrass plant response rating [15]: 100; Barnyardgrass plant response rating (0 to 100 scale) [15]: 100; Ryegrass, Italian plant response rating [16]: 80; Ryegrass, Italian plant response rating (0 to 100 scale) [16]: 100; Kochia plant response rating (kochia (Kochia scoparia) [17]): 60; Kochia plant response rating (0 to 100 scale) (kochia (Kochia scoparia) [17]): 60
CO/N=C(/c1c(O)c(C)nn(C)c1=O)c1cc(Br)cc2ccccc12 [Compound 99, 4-[(E)-(3-bromo-1-naphthalenyl)(methoxyimino)methyl]-5-hydroxy-2,6-dimethyl-3(2H)-pyridazinone]	25	70	70	15	100	90	100	60	80	80	90	80	90	90	90	90	100	90	80	50	Kochia plant response rating (0 to 100 scale) (kochia (Kochia scoparia) [12]): 70; Kochia plant response rating (kochia (Kochia scoparia) [12]): 50; Corn plant response rating (0 to 100 scale) (corn (Zea mays)): 60; Corn plant response rating (corn (Zea mays)): 30; melting point: 194 to 198 °C; Pigweed plant response rating [13]: 90; Pigweed plant response rating (0 to 100 scale) [13]: 100; Foxtail, Giant plant response rating [14]: 100; Foxtail, Giant plant response rating (0 to 100 scale) [14]: 100; Barnyardgrass plant response rating [15]: 90; Barnyardgrass plant response rating (0 to 100 scale) [15]: 100; Ryegrass, Italian plant response rating [16]: 90; Ryegrass, Italian plant response rating (0 to 100 scale) [16]: 100; Kochia plant response rating (kochia (Kochia scoparia) [17]): 70; Kochia plant response rating (0 to 100 scale) (kochia (Kochia scoparia) [17]): 90
